One test addresses TLR1/2 (Homo sapiens (Human), UniProt O60603+Q15399). Kind of test: Detection of TLR1/2 activation activity (SEAP signal) using TLR1/2 HEK BLUE cells. The format is cell-based.
Conditions: not given
The protocol: TLR1/2 activation activity was detected using TLR1/2 HEK BLUE cells. TLR1/2 HEK BLUE cells were cultured in DMEM medium containing 10% fetal bovine serum, 1% penicillin and streptomycin, and incubated in a 37° C. cell incubator containing 5% CO2.
HEK BLUE TLR1/2 cells were spread in a 384-well plate at 20,000 cells/well, cultured at 37° C., 5% CO2 for 24 hours, 25 μL per well. When the cells grew well, 100 μM compound and doubling-diluted for 11 concentration gradients. After the cells were kept for 24 hours in the CO2 incubator, 40 μL of indigo blue solution was added to each well of the plate in the dark, and reading was conducted 4 times in an interval of 15 minutes at 620 nm to detect the signal intensity of SEAP in the cell supernatant.
Chain of TLR1/2 (Q15399 25-786): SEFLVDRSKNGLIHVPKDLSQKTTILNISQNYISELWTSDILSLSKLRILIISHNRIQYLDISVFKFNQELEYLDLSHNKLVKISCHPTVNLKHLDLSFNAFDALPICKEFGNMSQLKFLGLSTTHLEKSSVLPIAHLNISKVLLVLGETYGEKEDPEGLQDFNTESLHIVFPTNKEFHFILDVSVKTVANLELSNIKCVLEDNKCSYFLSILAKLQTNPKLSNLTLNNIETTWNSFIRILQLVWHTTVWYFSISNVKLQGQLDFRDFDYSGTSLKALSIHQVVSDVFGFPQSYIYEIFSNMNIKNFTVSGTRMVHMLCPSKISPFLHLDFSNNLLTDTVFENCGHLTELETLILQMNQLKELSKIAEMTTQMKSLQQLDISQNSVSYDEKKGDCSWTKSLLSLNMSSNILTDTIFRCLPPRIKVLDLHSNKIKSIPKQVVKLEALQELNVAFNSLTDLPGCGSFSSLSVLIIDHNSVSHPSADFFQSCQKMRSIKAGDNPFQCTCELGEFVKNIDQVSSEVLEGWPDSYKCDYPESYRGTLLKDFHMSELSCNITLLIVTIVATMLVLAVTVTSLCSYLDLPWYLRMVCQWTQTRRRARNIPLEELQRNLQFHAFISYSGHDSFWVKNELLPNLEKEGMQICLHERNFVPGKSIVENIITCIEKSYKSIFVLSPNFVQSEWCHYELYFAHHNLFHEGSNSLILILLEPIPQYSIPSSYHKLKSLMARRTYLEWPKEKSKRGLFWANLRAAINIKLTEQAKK
Chain of TLR1/2 (O60603 19-784): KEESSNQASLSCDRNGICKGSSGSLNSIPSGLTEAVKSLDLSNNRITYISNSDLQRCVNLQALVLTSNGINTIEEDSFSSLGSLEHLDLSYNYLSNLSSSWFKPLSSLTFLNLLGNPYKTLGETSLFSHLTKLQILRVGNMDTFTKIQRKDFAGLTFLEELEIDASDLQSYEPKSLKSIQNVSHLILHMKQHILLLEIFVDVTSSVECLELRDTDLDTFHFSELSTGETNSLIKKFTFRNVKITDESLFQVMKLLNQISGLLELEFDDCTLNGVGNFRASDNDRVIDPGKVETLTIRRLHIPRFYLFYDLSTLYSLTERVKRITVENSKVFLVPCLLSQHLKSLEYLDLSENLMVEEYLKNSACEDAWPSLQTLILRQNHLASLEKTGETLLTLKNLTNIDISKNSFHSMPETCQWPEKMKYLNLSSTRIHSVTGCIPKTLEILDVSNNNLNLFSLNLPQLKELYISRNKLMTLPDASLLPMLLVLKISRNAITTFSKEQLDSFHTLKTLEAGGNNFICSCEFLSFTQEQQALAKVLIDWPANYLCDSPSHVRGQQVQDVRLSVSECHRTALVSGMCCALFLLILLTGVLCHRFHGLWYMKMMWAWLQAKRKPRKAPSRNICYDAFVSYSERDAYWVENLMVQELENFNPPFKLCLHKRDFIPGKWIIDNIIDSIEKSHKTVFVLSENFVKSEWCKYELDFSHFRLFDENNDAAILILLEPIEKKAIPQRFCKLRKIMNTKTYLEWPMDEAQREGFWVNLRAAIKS
For the molecule `CNc1ccc([N+](=O)[O-])cc1-n1cnc(-c2ccc(C(F)(F)F)cc2O)c1` [Compound 22, 2-(1-(2-(methylamino)-5-nitrophenyl)-1H-imidazol-4-yl)-5-(trifluoromethyl)phenol], the “TLR1/2 activation (in words)” value is given as “activates TLR1/2 activity in a concentration-dependent manner”.

Staying with this test, now noted: HEK BLUE TLR1/2 cells, 24 hours, SEAP read at 620 nm; highest concentration 100 μM; [‡] highest SEAP signal less than 50% of the activation value of compound 22.
As a reminder, the EC50 is the concentration at which the effect is half-maximal. The low end stands for a more potent agent, the high end for a less potent agent. Turning to `FC(F)(F)c1ccc(-c2csc(-c3ccccc3)n2)cc1` [Compound 3, 2-phenyl-4-(4-(trifluoromethyl)phenyl)thiazole], the EC50 is greater than 1000 nM.

On to `FC(F)(F)c1ccc(-c2csc(-c3cccc(C(F)(F)F)c3)n2)cc1` [Compound 4, 2-(3-(trifluoromethyl)phenyl)-4-(4-(trifluoromethyl)phenyl)thiazole], for which the EC50 was greater than 1000 nM.

Regarding `FC(F)(F)c1ccc(-c2csc(-c3cc(C(F)(F)F)cc(C(F)(F)F)c3)n2)cc1` [Compound 7, 2-(3,5-bis(trifluoromethyl)phenyl)-4-(4-(trifluoromethyl)phenyl)thiazole], the “TLR1/2 activation activity EC50” value was “NA[†]”.

For the molecule `Oc1cc(C(F)(F)F)ccc1-c1csc(-c2ccccc2)n1` [Compound 13, 2-(2-phenylthiazol-4-yl)-5-(trifluoromethyl)phenol], the “TLR1/2 activation activity EC50” value was “NA[†]”.

For the molecule `Oc1cc(C(F)(F)F)ccc1-c1csc(-c2cccc(C(F)(F)F)c2)n1` [Compound 14, 5-(trifluoromethyl)-2-(2-(3-(trifluoromethyl)phenyl)thiazol-4-yl)phenol], the “TLR1/2 activation activity EC50” value is “NA[†]”.

Take `Oc1cc(C(F)(F)F)ccc1-c1csc(-c2cc(C(F)(F)F)cc(C(F)(F)F)c2)n1` [Compound 17, 2-(2-(3,5-bis(trifluoromethyl)phenyl)thiazol-4-yl)-5-(trifluoromethyl)phenol]: the “TLR1/2 activation activity EC50” value is “NA[†]”.

`CNc1ccc([N+](=O)[O-])cc1-n1cnc(-c2ccc(OC(F)(F)F)cc2O)c1` [Compound 21, 2-(1-(2-(methylamino)-5-nitrophenyl)-1H-imidazol-4-yl)-5-(trifluoromethoxy)phenol] showed an EC50 of 24.9 ± 6.15 nM.

With `CNc1ccc([N+](=O)[O-])cc1-n1cnc(-c2ccc(C(F)(F)F)cc2O)c1` [Compound 22, 2-(1-(2-(methylamino)-5-nitrophenyl)-1H-imidazol-4-yl)-5-(trifluoromethyl)phenol], the response was half-maximal at 4.88 ± 0.79 nM (EC50). This EC50 is about 5.1-fold lower than that of the molecule before.

In the case of `CNc1ccc(S(C)(=O)=O)cc1-n1cnc(-c2ccc(C(F)(F)F)cc2O)c1` [Compound 23, 2-(1-(2-(methylamino)-5-(methylsulfonyl)phenyl)-1H-imidazol-4-yl)-5-(trifluoromethyl)phenol], the EC50 amounted to 5.14 ± 0.07 nM.

`CNc1ccc(C(=O)OC)cc1-n1cnc(-c2ccc(C(F)(F)F)cc2O)c1` [Compound 24, Methyl 3-(4-(2-hydroxy-4-(trifluoromethyl)phenyl)-1H-imidazol-1-yl)-4-(methylamino)benzoate] gave an EC50 of 432.86 ± 0.05 nM.

Regarding `CNC(=O)c1ccc(NC)c(-n2cnc(-c3ccc(C(F)(F)F)cc3O)c2)c1` [Compound 25, 3-(4-(2-hydroxy-4-(trifluoromethyl)phenyl)-1H-imidazol-1-yl)-N-methyl-4-(methylamino)benzamide], the EC50 is 45.6 ± 3.15 nM.

`CNc1c(Cl)cc([N+](=O)[O-])cc1-n1cnc(-c2ccc(C(F)(F)F)cc2O)c1` [Compound 26, 2-(1-(3-chloro-2-(methylamino)-5-nitrophenyl)-1H-imidazol-4-yl)-5-(trifluoromethyl)phenol] displayed an EC50 of 192 ± 17.2 nM. Against the preceding molecule, the EC50 is about 4.2-fold higher.

On to `CNc1c(Cl)cc([N+](=O)[O-])cc1-n1cnc(-c2ccc(C#N)cc2)c1` [Compound 27, 4-(1-(3-chloro-2-(methylamino)-5-nitrophenyl)-1H-imidazol-4-yl)benzonitrile], for which the concentration giving a half-maximal response (EC50) was greater than 1000 nM.

The molecule `CNc1ccc([N+](=O)[O-])cc1-n1cnc(-c2ccc(C(F)(F)F)cc2OC)c1` [Compound 28, 2-(4-(2-methoxy-4-(trifluoromethyl)phenyl)-1H-imidazol-1-yl)-N-methyl-4-nitroaniline] yielded an EC50 of 92.3 ± 12.3 nM.

Take `CCOc1cc(C(F)(F)F)ccc1-c1cn(-c2cc([N+](=O)[O-])ccc2NC)cn1` [Compound 29, 2-(4-(2-ethoxy-4-(trifluoromethyl)phenyl)-1H-imidazol-1-yl)-N-methyl-4-nitroaniline]: the EC50 was greater than 1000 nM.

Molecule `CNc1ccc([N+](=O)[O-])cc1-n1cnc(-c2ccc(C(F)(F)F)cc2OCc2ccccc2)c1` [Compound 30, 2-(4-(2-(benzyloxy)-4-(trifluoromethyl)phenyl)-1H-imidazol-1-yl)-N-methyl-4-nitroaniline] showed an EC50 greater than 1000 nM.

`CNc1ccc([N+](=O)[O-])cc1-n1cnc(-c2ccc(C(F)(F)F)cc2OCCBr)c1` [Compound 31, 2-(4-(2-(2-bromoethoxy)-4-(trifluoromethyl)phenyl)-1H-imidazol-1-yl)-N-methyl-4-nitroaniline] returned an EC50 greater than 1000 nM.

As for `CNc1ccc([N+](=O)[O-])cc1-n1cnc(-c2ccc(C(F)(F)F)cc2OCCCBr)c1` [Compound 32, 2-(4-(2-(3-bromopropoxy)-4-(trifluoromethyl)phenyl)-1H-imidazol-1-yl)-N-methyl-4-nitroaniline], the EC50 is greater than 1000 nM.

`CNc1ccc([N+](=O)[O-])cc1-n1cnc(-c2ccc(C(F)(F)F)cc2OCCOCCO)c1` [Compound 34, 2-(2-(2-(1-(2-(methylamino)-5-nitrophenyl)-1H-imidazol-4-yl)-5-(trifluoromethyl)phenoxy)ethoxy)ethanol] had an EC50 greater than 1000 nM.

For the molecule `CNc1ccc([N+](=O)[O-])cc1-n1cnc(-c2ccc(C(F)(F)F)cc2OC(C)=O)c1` [Compound 35, (1-(2-(methylamino)-5-nitrophenyl)-1H-imidazol-4-yl)-5-(trifluoromethyl)phenyl acetate], the response was half-maximal at 18.8 ± 3.65 nM (EC50).

`CCCCCCCC(=O)Oc1cc(C(F)(F)F)ccc1-c1cn(-c2cc([N+](=O)[O-])ccc2NC)cn1` [Compound 36, 2-(1-(2-(methylamino)-5-nitrophenyl)-1H-imidazol-4-yl)-5-(trifluoromethyl)phenyl octanoate] returned a half-maximal effective concentration (EC50) of 56.3 ± 7.31 nM.

As to `CCCCCCCCCCCC(=O)Oc1cc(C(F)(F)F)ccc1-c1cn(-c2cc([N+](=O)[O-])ccc2NC)cn1` [Compound 37, 2-(1-(2-(methylamino)-5-nitrophenyl)-1H-imidazol-4-yl)-5-(trifluoromethyl)phenyl dodecanoate], it took 113 ± 12.7 nM to reach a half-maximal effect (EC50).

In turn, `CNc1ccc([N+](=O)[O-])cc1-n1cnc(-c2ccc(C(F)(F)F)cc2OC(=O)c2ccccc2)c1` [Compound 38, 2-(1-(2-(methylamino)-5-nitrophenyl)-1H-imidazol-4-yl)-5-(trifluoromethyl)phenyl benzoate] returned an EC50 of 16.9 ± 2.79 nM. Compared with the last molecule, the EC50 is about 6.7-fold lower.

Turning to `CNc1ccc([N+](=O)[O-])cc1-n1cnc(-c2ccc(C(F)(F)F)cc2OC(=O)/C=C/c2ccccc2)c1` [Compound 39, (1-(2-(methylamino)-5-nitrophenyl)-1H-imidazol-4-yl)-5-(trifluoromethyl)phenyl cinnamate], the EC50 stood at 12 ± 2.67 nM.

Molecule `CNc1ccc([N+](=O)[O-])cc1-n1cnc(-c2ccc(C(F)(F)F)cc2OCCOCCOCCI)c1` [Compound 41, 2-(4-(2-(2-(2-(2-iodoethoxy)ethoxy)ethoxy)-4-(trifluoromethyl)phenyl)-1H-imidazole-1-yl)-N-methyl-4-nitroaniline] showed a concentration for a half-maximal effect (EC50) greater than 1000 nM.

Molecule `CNc1ccc([N+](=O)[O-])cc1-n1cnc(-c2ccc(C(F)(F)F)cc2OCC(N)=O)c1` [Compound 42, (2-(1-(2-(methylamino)-5-nitrophenyl)-1H-imidazo-4-yl)-5-(trifluoromethyl)phenoxy)acetamide] registered an EC50 greater than 1000 nM.

For `CNc1ccc([N+](=O)[O-])cc1-n1cnc(-c2ccc(C(F)(F)F)cc2OCCNC(=O)CCCC[C@@H]2SC[C@@H]3NC(=O)N[C@@H]32)c1` [Compound 44, N-(2-(2-(1-(2-(methylamino)-5-nitrophenyl)-1H-imidazol-4-yl)-5-(trifluoromethyl)phenoxyl)ethyl)-5-((3AS,4S,6AR)-2-oxohexahydro-1H-thieno[3,4-d]imidazol-4-yl)pentanamide], the EC50 was 764 ± 10.2 nM.

The same test, now with this note: even at a low concentration (15 nM).
Regarding `CNc1ccc([N+](=O)[O-])cc1-n1cnc(-c2ccc(C(F)(F)F)cc2O)c1` [Compound 22, 2-(1-(2-(methylamino)-5-nitrophenyl)-1H-imidazol-4-yl)-5-(trifluoromethyl)phenol], the “signal intensity of TLR1/2 alkaline phosphatase (SEAP)” value is “significantly activate”.

For the origin of these results see US11472815B2, “1,4-diphenyl-1H-imidazole and 2,4-diphenylthiazole derivatives and preparation method therefor and use thereof” (SOUTHERN MEDICAL UNIVERSITY, priority 2018, dated 2022).
